Experimental data from patent US9732092B2, “Substituted 2,3,4,5,7,9,13,13a-octahydropyrido[1′,2′:4,5]pyrazino[2,1-b][1,3]OXAZEPINES and methods for treating viral infections” (Gilead Sciences, Inc., priority 2012, dated 2017).
One block for each molecule: values may come before it.

How the values were obtained:
MT4 cells = test: Cytotoxicity (CC50) in MT4 cells, mock-infected; conditions: read-out: CC50 nM in MT-4; MT4 cells, 5 days, CellTiter-Glo
Method: (§1) For the antiviral assay utilizing MT4 cells, 0.4 μL of […] test concentration of 3-fold serially diluted compound in DMSO was added to 40 μL of cell growth medium (RPMI 1640, 10% FBS, 1% penicilline/Streptomycine, 1% L-Glutamine, 1% HEPES) in each well of 384-well assay plates (10 concentrations) in quidruplicate.
(§2) 1 mL aliquots of 2×10^6 MT4 cells are pre-infected for 1 and 3 hours respectively at 37° C. with 25 μL (MT4) or of either cell growth medium (mock-infected) or a fresh 1:250 dilution of an HIV-IIIb concentrated ABI stock (0.004 m.o.i. for MT4 cells). Infected and uninfected cells are diluted in cell growth medium and 35 μL of 2000 (for MT4) cells is added to each well of the assay plates.
(§3) Assay plates were then incubated in a 37° C. incubator. After 5 days of incubation, 25 μL of 2× concentrated CellTiter-GloT Reagent (catalog # G7573, Promega Biosciences, Inc., Madison, Wis.) was added to each well of the assay plate. Cell lysis was carried out by incubating at room temperature for 2-3 minutes, and then chemiluminescence was read using the Envision reader (PerkinElmer).

[1] = Cytotoxicity (CC50) in MT4 cells, mock-infected; conditions: human
Method: as §1, §2, §3

human PXR (NR1I2) = human PXR (NR1I2) (Homo sapiens (Human), UniProt O75469); test: Human PXR activation assay (luciferase reporter gene, DPX2 cells); type: cell-based; conditions: relative to maximum fold induction by 10 or 20 μM rifampicin
Method: A stably transformed tumor cell line (DPX2) was plated on 96-well microtiter plates. DPX2 cells harbor the human PXR gene (NR1I2) and a luciferase reporter gene linked to two promoters identified in the human CYP3A4 gene, namely XREM and PXRE. […] The number of viable cells was determined and the reporter gene activity was assessed. Positive control: […]

[2] = Pharmacokinetic analysis following oral administration to beagle dogs; type: in vivo; conditions: beagle dog, 1 mg/kg
Method: Pharmacokinetic analysis was performed on various test compounds following intravenous or oral administration to beagle dogs.
For pharmacokinetic analysis of intravenously administered compounds, the test compounds were formulated in 5% Ethanol, 55% PEG 300, and 40% water at 0.1 mg/mL for IV infusion. For pharmacokinetic analysis of orally administered compounds, the test compounds were formulated as an aqueous suspension in 0.1% Tween 20, 0.5% HPMC LV100 in Di Water at 1 mg/kg.
Each dosing group consisted of 3 male, non-naïve purebred beagle dogs. At dosing, the animals weighed between 10 to 13 kg. The animals were fasted overnight prior to dose administration and up to 4 hr after dosing. For studies of intravenous administration, the test article was administered to the animals by intravenous infusion over 30 min. The rate of infusion was adjusted according to the body weight of each animal to deliver a dose of 0.5 mg/kg. […]
For pharmacokinetic analysis of orally administered compounds, serial venous blood samples (approximately 0.3 mL each) were taken from each animal at time points of 0, 0.25, 0.50, 1.0, 2.0, 4.0, 6.0, 8.0, 12.0 and 24.0 hours after dosing. Blood samples were collected, prepared and analyzed in a similar way to the intranveous studies described above. […]

[3] = MT4 cells, mock-infected (uninfected)

Chain of human PXR (NR1I2) (O75469 whole entry): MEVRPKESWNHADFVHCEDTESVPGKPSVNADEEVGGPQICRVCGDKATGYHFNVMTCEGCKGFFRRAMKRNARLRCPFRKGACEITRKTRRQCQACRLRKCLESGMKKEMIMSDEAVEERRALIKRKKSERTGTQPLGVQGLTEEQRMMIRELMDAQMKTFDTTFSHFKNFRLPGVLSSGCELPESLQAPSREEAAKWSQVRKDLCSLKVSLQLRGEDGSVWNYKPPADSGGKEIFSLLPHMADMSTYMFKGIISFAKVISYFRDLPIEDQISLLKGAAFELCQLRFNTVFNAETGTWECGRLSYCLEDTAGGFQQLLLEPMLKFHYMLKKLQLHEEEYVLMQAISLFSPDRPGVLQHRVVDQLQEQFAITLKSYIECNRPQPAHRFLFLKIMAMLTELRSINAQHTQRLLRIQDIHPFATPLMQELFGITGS

Structure (SMILES): O=C(NC1(c2ccc(F)cc2F)CCCCC1)c1cn2c(c(O)c1=O)C(=O)N1C(C2)O[C@H]2CC[C@@H]1C2 (stereo partly drawn) [Compound 34, (2S,5R)—N-(1-(2,4-difluorophenyl)cyclohexyl)-8-hydroxy-7,9-dioxo-2,3,4,5,7,9,13,13a-octahydro-2,5-methanopyrido[1′,2′:4, 5]pyrazino[2,1-b][1,3]oxazepine-10-carboxamide]
CC50 (MT4 cells): 3580 nM

Emax at 24 h, 15 µM (human PXR (NR1I2)): 123%
Structure (SMILES): O=C(NCc1c(F)cc(F)cc1F)c1cn2c(c(O)c1=O)C(=O)N1[C@H]3CC[C@H](CC3)[C@@H]1C2 [Compound 102, (1S,4S,12aR)-7-hydroxy-6,8-dioxo-N-(2,4,6-trifluorobenzyl)-1,2,3,4,6,8,12, 12a-octahydro-1,4-ethanodipyrido[1,2-a:1′,2′-d]pyrazine-9-carboxamide]
CC50 at 5 days [1, 3]: 12 µM

Structure (SMILES): O=C(NCc1ccc(F)cc1F)c1cn2c(c(O)c1=O)C(=O)N1[C@@H]3COC[C@@H](C3)O[C@H]1C2 (racemic) [50/51, N-(2,4-difluorobenzyl)-9-hydroxy-8,10-dioxo-2,3,5,6,8, 10,14,14a-octahydro-2,6-methanopyrido[1′,2′:4,5]pyrazino[2,1-b][1,6,3]dioxazocine-11-carboxamide]
CC50 at 5 days [1]: 37.2 µM

Structure (SMILES): O=C(NCc1c(F)cc(F)cc1F)c1cn2c(c(O)c1=O)C(=O)N1[C@H]3CC[C@H](CC3)[C@H]1C2 [Compound 101, (1R,4R,12aS)-7-hydroxy-6,8-dioxo-N-(2,4,6-trifluorobenzyl)-1,2,3,4,6,8,12,12a-octahydro-1,4-ethanodipyrido[1,2-a:1′,2′-d]pyrazine-9-carboxamide]
CC50 at 5 days [1, 3]: 11.6 µM

F (%) aqueous suspension [2]: 28.0%
Structure (SMILES): O=C(NCc1c(F)cc(F)cc1F)c1cn2c(c(O)c1=O)C(=O)N1[C@H]3CC[C@H](C3)O[C@@H]1C2 [Compound 42, (2R,5S,13aR)-8-hydroxy-7,9-dioxo-N-(2,4,6-trifluorobenzyl)-2,3,4,5,7,9,13,13a-octahydro-2,5-methanopyrido[1′,2′:4,5]pyrazino[2,1-b][1,3]oxazepine-10-carboxamide]
